This is an account of results in ChEMBL document CHEMBL1150471, “Tritylated oncolytics as prodrugs” (Bioorg Med Chem Lett, 1995).

The structures appear in SMILES notation. In brackets after ≈: the same amount, converted by molar mass. Activity calls are given as the source filed them. No cut-off for these calls is given here.

Series [1] deals with CCRF-CEM. Nature of the series: In vitro cytotoxicity against human leukemia cell line CCRF-CEM. In kind it is functional, cell-based.
The subject of series [2] is Homo sapiens. In words: In vivo inhibition against human colon (HC-1) xenograft at a dose of 20 mg/kg. In kind it is functional. (Xenograft models place foreign cells or tissue in a host animal.)
For series [3], the system named is Homo sapiens. In words: In vivo inhibition against human colon (HC-1) xenograft at a dose of 37.5 mg/kg. In kind it is functional.
Series [4] relates to Homo sapiens. Nature of the series: In vivo inhibition against human colon (HC-1) xenograft at a dose of 50 mg/kg. In kind it is functional.
The test system of series [5] is Homo sapiens. Nature of the series: In vivo inhibition against human colon (HC-1) xenograft at a dose of 75 mg/kg. In kind it is functional.
Series [6] can be described thus: Half life at pH 5.4. In kind it is ADME. Conditions: buffer.
Series [7] can be described thus: Half life at pH 6.4. In kind it is ADME. Conditions: buffer.
Series [8] is described as follows: Half life at pH 7.4. In kind it is ADME. Particulars: buffer.
Series [9] has as its system Homo sapiens. Nature of the series: In vivo tumor inhibition against human colon (HC-1) xenograft after i.p. administration to C3H nude mice on day 1. In kind it is functional. The arrangement: concentration or dose not given beside the values.
For series [10], the system named is Homo sapiens. In words: In vivo tumor inhibition against human colon (HC-1) xenograft after i.p. administration to C3H nude mice on days 10. The arrangement: concentration or dose not given beside the values. In kind it is functional.
Series [11] concerns Homo sapiens. In words: In vivo tumor inhibition against human colon (HC-1) xenograft after i.p. administration to C3H nude mice on days 4. In kind it is functional. The arrangement: concentration or dose not given beside the values.
Series [12] relates to Homo sapiens. In words: In vivo tumor inhibition against human colon (HC-1) xenograft after i.p. administration to C3H nude mice on days 7. In kind it is functional. The arrangement: concentration or dose not given beside the values.
Series [13] can be described thus: Half life at pH 5.4; no dissociation up to day 33. In kind it is ADME. Particulars: buffer.
Series [14] in a line: Half life at pH 6.4; no dissociation up to day 33. Particulars: buffer. In kind it is ADME.
Series [15] in a line: Half life at pH 7.4; no dissociation up to day 33. In kind it is ADME. Conditions: buffer.
Series [16] concerns Homo sapiens. Nature of the series: Effective dose for the dose dependent inhibition of tumor growth against human colon (HC-1) xenograft in mice; Inactive. In kind it is functional, organism-based.
In series [17] the test system is Homo sapiens. In words: Effective dose for the dose dependent inhibition of tumor growth against human colon (HC-1) xenograft in mice. In kind it is functional.

For orientation: IC50 means the concentration at which inhibition is half-maximal. Usually inhibition in vivo stands for the relative decrease from the control value, in per cent. On to `Nc1nc(N)c2ncn([C@@H]3O[C@H](CO)[C@@H](O)C3(F)F)c2n1`, for which the IC50 in series [1] was found to be 0.024 mg/L (≈ 0.0794 µM). Besides, the inhibition in vivo at 20 mg/kg in [2] was greater than 95%. For the same compound, in [3], the inhibition in vivo at 37.5 mg/kg was greater than 95%. The compound also gave an inhibition in vivo at 50 mg/kg in series [4] greater than 95%. In [5], the inhibition in vivo at 75 mg/kg is greater than 95%.

In general, half-life refers to how long it takes for the measured level to halve. Usually Inhibition stands for the share of the control response that was lost under treatment. On to `COc1ccc(C(Nc2nc(N)nc3c2ncn3[C@@H]2O[C@H](CO)[C@@H](O)C2(F)F)(c2ccccc2)c2ccc(C(=O)NC(C)C)cc2)cc1` (stereo not given in full), for which the half-life in series [6] is 16.7 h; in series [7], 547 h; in series [8], 800 h. This compound returned an IC50 in series [1] of 0.1 mg/L (≈ 0.152 µM). Moreover, the Inhibition in series [9], in series [10], in series [11] and in series [12] was greater than 95% in each case.

`COc1ccc(C(Nc2nc(N)nc3c2ncn3[C@@H]2O[C@H](CO)[C@@H](O)C2(F)F)(c2ccc(C)cc2)c2ccc(C(=O)NC(C)C)cc2)cc1` (stereo not given in full) showed an IC50 in series [1] of 0.1 mg/L (≈ 0.148 µM). Moreover, the Inhibition in [9], in series [10], in series [11] and in series [12] was greater than 95% each time.

The ED50 is the dose that gives a 50% effect, or the effect in half of the subjects. With `CC(C)NC(=O)c1ccc(C(Nc2nc(N)nc3c2ncn3[C@@H]2O[C@H](CO)[C@@H](O)C2(F)F)(c2ccccc2)c2ccccc2)cc1`, the T1/2 result in series [13], in series [14] and in series [15] was “no dissociation up to day 33” each time. The midpoint of inhibition in series [1], the IC50, lay at 1.7 mg/L (≈ 2.7 µM). The ED50 entry in [16] was “inactive”. Further, the Inhibition in [9], in series [10], in [11] and in series [12] was greater than 95% each time.

As to `Cc1ccc(C(Nc2nc(N)nc3c2ncn3[C@@H]2O[C@H](CO)[C@@H](O)C2(F)F)(c2ccccc2)c2ccc(C(=O)NC(C)C)cc2)cc1` (stereo not given in full), in [1], the IC50 came out at 0.8 mg/L (≈ 1.24 µM). The compound also showed an ED50 in [17] of 30 mg/kg. Further, the Inhibition in series [9], in series [10], in series [11] and in series [12] was greater than 95% in each case.

Turning to `COc1ccc(C(Nc2nc(N)nc3c2ncn3[C@@H]2O[C@H](CO)[C@@H](O)C2(F)F)(c2ccc(OC)cc2)c2ccc(C(=O)NC(C)C)cc2)cc1`, the half-life was 3.71 h in series [6], 14.8 h in [7] and 146 h in [8]. In series [1], this compound returned an IC50 of 0.078 mg/L (≈ 0.113 µM). Further, the Inhibition in series [9], in series [10], in [11] and in series [12] was greater than 95% in each case.

Regarding `COc1ccc(C(Nc2nc(N)nc3c2ncn3[C@@H]2O[C@H](CO)[C@@H](O)C2(F)F)(c2ccc(OC)cc2)c2cccc(C(=O)NC(C)C)c2)cc1`, the half-life in [6] was 2.35 h; in series [7], 23.3 h; in series [8] it was 133 h. The compound also showed a 50% inhibitory concentration (IC50) in series [1] of 0.084 mg/L (≈ 0.122 µM).
